Among the data in ChEMBL document CHEMBL5346938, “Bis-chalcones: A review of synthetic methodologies and anti-inflammatory effects” (Eur J Med Chem, 2023) are inhibition, IC50 and Activity values, retold here.

Assay [1] relates to RAW264.7. Nature of the assay: Inhibition of LPS-induced NFkappaB activation in mouse RAW264.7 cells assessed as effect on LPS-induced nuclear translocation of NF-kappaB incubated for 1 hr at 5 uM relative to control. The class given is cell-based.
A short description of assay [2]: Inhibition of LPS-induced NFkappaB activation in mouse RAW264.7 cells assessed as effect on LPS-induced nuclear translocation of NF-kappaB incubated for 1 hr. The format is cell-based. Particulars: RAW264.7, 1 h.
The test system of assay [3] is BV-2. Nature of the assay: Antiinflammatory activity in mouse BV-2 cells assessed as reduction in LPS-induced nitric oxide production at 10 uM relative to control. The format is functional. Set-up: scale not given: the % may be the effect or the level left.

Molecules are shown by their SMILES.

As a reminder, the inhibition is the percentage by which the read-out fell short of the control. What is called IC50 is the concentration needed to halve the response being measured. For `O=C1/C(=C/c2ccccn2)CNC/C1=C\c1ccccn1`, the inhibition in assay [1] is 100%. For the same molecule, the IC50 in assay [2] stood at 4.5 µM. With `COc1cc(/C=C/C(=O)c2cccc(C(=O)/C=C/c3ccc(O)c(OC)c3)c2)ccc1O`, the Activity in assay [3] stood at 70%.
